logP and chromatographic logP data for 58 molecules are collected here from patent US20100081679A1, “DIAMINOPYRIMIDINES AS FUNGICIDES” (Bayer CropScience AG, priority 2007, published 2010).

Marks after values point to notes of the source that are not given here.

The first data set is described as follows: logP determination via retention times, calibrated with unbranched alkan-2-ones. In kind it is physicochemical. The settings on record: HPLC on reversed-phase C 18, EEC Directive 79/831 Annex V.A8; method *: 40° C., 0.1% aqueous formic acid and acetonitrile, linear gradient 10% to 95% acetonitrile.
As for `O=C1COCCN1c1ccc(Nc2ncc(Cl)c(NC3CC3)n2)cc1` [compound 495], the logP is listed as 1.17*.
The same measure, in the same setting: to `Cc1cc(Nc2ncc(Cl)c(NCC3CC3)n2)ccc1O` [compound 558] belongs 1.51*; to `CCC(=O)c1cc(Nc2ncc(Cl)c(NCC3CC3)n2)ccc1O` [compound 541], 2.13*; to `CC(C)(CF)C(=O)Nc1cccc(Nc2ncc(Br)c(NCC3CC3)n2)c1` [compound 467], 1.99*.
Still for that read-out and setting: the same measure for `CC1CC(C)CN(c2cccc(Nc3ncc(Br)c(NC4CC4)n3)c2)C1` (stereo not shown) [compound 529]: 2.63*; for `FC(F)C(F)(F)Oc1cccc(Nc2ncc(Cl)c(NCC3CC3)n2)c1` [compound 527]: 2.95*.

Still in this data set, the particulars now being: HPLC on reversed-phase C 18, method **: 43° C.; 0.1% aqueous phosphoric acid and acetonitrile; linear gradient 10% to 95% acetonitrile.
Consider `CN(c1nc(Nc2ccccc2)ncc1Cl)C1CC1` [compound 734], for which the logP was 2.7**.
On to `O=C1CCCN1c1cc(Nc2ncc(Br)c(NC3CC3)n2)ccc1F` [compound 771], for which the logP is reported as 1.61**.
On the same count and under the same terms, to `CN(c1nc(Nc2ccccc2)ncc1Br)C1CC1` [compound 928] belongs 1.7**.

The data set is the same for the next values; noted with them: HPLC on reversed-phase C18, method **: 43° C.; mobile phase 0.1% aqueous phosphoric acid and acetonitrile; linear gradient 10% to 95% acetonitrile.
For `O=S(=O)(c1ccc(Nc2ncc(Cl)c(NC3CC3)n2)cc1)N1CCCC1` [compound 307], the logP is on record as 2.52**.
Take `CC(C)(C)NS(=O)(=O)c1ccc(Nc2ncc(Cl)c(NC3CC3)n2)cc1` [compound 306]: the logP is recorded as 2.3**.

The same data set, now with this note: HPLC on reversed-phase C18, method *: 40° C., 0.1% aqueous formic acid and acetonitrile, linear gradient 10% to 95% acetonitrile.
In the case of `Brc1ccc(Nc2ncc(Br)c(NC3CC3)n2)cc1` [compound 743], the logP was 2.7*.
As for `Clc1cnc(Nc2ccccc2Oc2ccccc2)nc1NC1CC1` [compound 901], the logP was 3.14*.
On the same count and under the same terms, the same measure for `Clc1cnc(Nc2ccccc2Sc2ccccc2)nc1NC1CC1` [compound 884]: 3.94*; for `N#Cc1ccc(Nc2ncc(Br)c(NC3CC3)n2)cc1` [compound 744]: 2.43*; for `CC(=O)Nc1cc(Nc2ncc(Br)c(NC3CC3)n2)ccc1C` [compound 113]: 1.35*.
With `Clc1cnc(Nc2ccc(-c3cscn3)cc2)nc1NCC1CC1` [compound 689], the logP was 2.06*.
Still for that read-out and setting: to `N#CCc1cccc(Nc2ncc(C(F)(F)F)c(NC3CC3)n2)c1` [compound 976] belongs 2.56*.
On the same count and under the same terms, to `Cc1cccc(Nc2ncc(Br)c(NC3CC3)n2)c1` [compound 730] belongs 2.07*.
The same measure, in the same setting: the same measure for `O=C1C=CC(=O)N1c1ccc(Nc2ncc(Cl)c(NC3CC3)n2)cc1` [compound 156]: 1.58*; for `Oc1ccc(Nc2ncc(Cl)c(NCC3CC3)n2)c(F)c1` [compound 694]: 1.46*.
As to `C=CC(=O)Nc1cccc(Nc2ncc(Br)c(NC3CC3)n2)c1` [compound 754], the logP is 1.54*.
For the molecule `CCc1ccc(Nc2ncc(Cl)c(NC3CC3)n2)cc1` [compound 951], the logP is reported as 2.13*.

Staying with this data set, now noted: HPLC on reversed-phase C18, method *: 40° C.; mobile phase 0.1% aqueous formic acid and acetonitrile; linear gradient 10% to 95% acetonitrile.
Turning to `FC(F)Oc1ccc(Nc2ncc(Cl)c(NC3CC3)n2)cc1` [compound 288], the logP was 2.11*.
Consider `COC(=O)Cc1ccc(Nc2ncc(Cl)c(NC3CC3)n2)cc1` [compound 287], for which the logP is given as 1.85*.
The same measure, in the same setting: the same measure for `CCOC(=O)C1(Nc2nc(Nc3cccc(Cl)c3)ncc2Cl)CC1` [compound 316]: 3.13*; for `CCN(C(=O)OC)c1ccc(Nc2ncc(Br)c(NC3CC3)n2)cc1` [compound 303]: 2.06*.
On the same count and under the same terms, the same measure for `Clc1cnc(Nc2cccc(-c3nccs3)c2)nc1NC1CC1` [compound 297]: 2.21*; for `Clc1cccc(Nc2ncc(Br)c(NC3CC3)n2)c1` [compound 359]: 2.77*.
Still for that read-out and setting: the same measure for `CC(C)(C)NC(=O)c1ccc(Nc2ncc(Br)c(NC3CC3)n2)cc1` [compound 352]: 2.18*; for `COc1ccc(Nc2ncc(Br)c(NC3CC3)n2)cc1` [compound 344]: 1.63*.

Staying with this data set, now noted: HPLC on reversed-phase C18 column (EEC Directive 79/831 Annex V.A8); method *: 40° C.; 0.1% aqueous formic acid and acetonitrile; linear gradient 10% to 95% acetonitrile.
In the case of `O=S(=O)(c1cccc(Nc2ncc(C(F)(F)F)c(NCC3CC3)n2)c1)N1CCCCC1` [compound 209], the logP is 3.81*.
`COc1cc(Nc2ncc(Br)c(NCC3CC3)n2)cc(OC)c1OC` [compound 190]: the logP is 1.88*.
Still for that read-out and setting: the same measure for `Clc1cnc(Nc2ccc(-c3nccs3)cc2)nc1NC1CC1` [compound 253]: 2.32*.

The data set is the same for the next values; noted with them: HPLC reversed-phase C 18, EEC Directive 79/831 Annex V.A8; method *: 40° C., 0.1% aqueous formic acid and acetonitrile, linear gradient 10% to 95% acetonitrile.
With `COC(C)c1cccc(Nc2ncc(Br)c(NC3CC3)n2)c1` (stereo not shown) [compound 805], the logP was 2.08*.
Same read-out and setting: the same measure for `COC(C)c1cccc(Nc2ncc(C(F)(F)F)c(NC3CC3)n2)c1` (stereo not shown) [compound 826]: 3.16*.

The same data set, now with this note: method **: HPLC reversed-phase C 18, 43° C., 0.1% aqueous phosphoric acid and acetonitrile, linear gradient 10% to 95% acetonitrile.
In the case of `CS(=O)(=O)c1ccc(Nc2ncc(Cl)c(NC3CC3)n2)cc1` [Example 50], the logP was 1.75**.

The same data set, now with this note: method **: HPLC, reversed-phase C 18, 43° C., mobile phase 0.1% aqueous phosphoric acid and acetonitrile, linear gradient from 10% to 95% acetonitrile.
For the molecule `COc1ccc(CN(c2nc(Nc3cccc(N4CCCC4=O)c3)ncc2Cl)C2CC2)cc1` [compound 1045], the logP was 3.37**.

The same data set, now with this note: method *: HPLC reversed-phase C18, 40° C., 0.1% aqueous formic acid and acetonitrile, linear gradient 10% to 95% acetonitrile.
With `COC(=O)Nc1ccc(Nc2ncc(C)c(NC3CC3)n2)cc1` [compound 446], the logP was 1.06*.
Same read-out and setting: to `O=C1NC(=O)C(c2ccc(Nc3ncc(Br)c(NC4CC4)n3)cc2)N1` (stereo not shown) [compound 384] belongs 0.62*; to `CCCCCCCCSc1cccc(Nc2ncc(Cl)c(NC3CC3)n2)c1.Cc1ccc(S(=O)(=O)O)cc1` [compound 442], 6.16*; to `CC(=O)c1ccc(Nc2ncc(Br)c(NCC3CC3)n2)cc1` [compound 456], 2.26*.
Still for that read-out and setting: to `CC(C)(CF)C(=O)Nc1ccc(Nc2ncc(Cl)c(NC3CC3)n2)cc1` [Example 67] belongs 1.74*; to `CCC(=O)Nc1cccc(Nc2ncc(Br)c(NC3CC3)n2)c1` [compound 381], 1.54*; to `CC(C)(C)C(=O)Nc1cccc(Nc2ncc(Cl)c(NC3CC3)n2)c1` [Example 91], 1.98*.
On the same count and under the same terms, the same measure for `CC(=O)Nc1ccc(Nc2ncc(Cl)c(NC3CC3)n2)cc1.Cc1ccc(S(=O)(=O)O)cc1` [compound 434]: 1.02*.

The same data set, now with this note: method *: HPLC reversed-phase C 18, temperature 40° C.; mobile phase 0.1% aqueous formic acid and acetonitrile; linear gradient 10% to 95% acetonitrile.
On to `CSc1ccc(Nc2ncc(F)c(NC3CC3)n2)cc1` [compound 587], for which the logP is on record as 1.68*.
Consider `CC(=O)Nc1ccc(Nc2ncc(F)c(NC3CC3)n2)cc1Cl` [compound 580], for which the logP is given as 1.32*.
On to `CSc1ccc(Nc2ncc(C(F)(F)F)c(NC3CC3)n2)cc1Cl` [compound 646], for which the logP is 4.08*.
Still for that read-out and setting: the same measure for `COc1cccc(Nc2ncc(F)c(NC3CC3)n2)c1` [compound 573]: 1.51*.
Same read-out and setting: the same measure for `CCNC(=O)c1cccc(Nc2ncc(Cl)c(NC3CC3)n2)c1` [compound 631]: 1.35*; for `CCc1cccc(Nc2ncc(Cl)c(NC3CC3)n2)c1` [compound 634]: 2.35*.
Still for that read-out and setting: the same measure for `COc1cc(Nc2ncc(Br)c(NC3CC3)n2)ccc1F` [compound 568]: 2.05*.

Staying with this data set, now noted: method *: HPLC, reversed-phase C 18, 40° C., mobile phase 0.1% aqueous formic acid and acetonitrile, linear gradient from 10% to 95% acetonitrile.
Consider `CCNC(=O)c1cccc(Nc2ncc(C(F)(F)F)c(NC3CC3)n2)c1` [compound 1031], for which the logP is 2.07*.
Regarding `Clc1cnc(Nc2ccc3c(c2)CCC3)nc1NC1CC1` [compound 1000], the logP is 2.11*.
Turning to `COCCN(C)C(=O)c1cccc(Nc2ncc(Cl)c(NC3CC3)n2)c1` [compound 1064], the logP is on record as 1.46*.

Staying with this data set, now noted: pH 2.3; read-out: logP (pH2.3).
`Fc1cnc(Cl)nc1NC1CC1` [2-chloro-N-cyclopropyl-5-fluoropyrimidine-4-amine]: the chromatographic logP amounted to 1.42.
Same read-out and setting: the same measure for `CCOC1(Nc2nc(Cl)ncc2Cl)CC1` [2,5-Dichloro-N-(1-ethoxycyclopropyl)pyrimidine-4-amine]: 2.09.
